Consider 49 compounds from ChEMBL document CHEMBL5634125, “Investigation of novel 5'-amino adenosine derivatives with potential anti-Zika virus activity” (Eur J Med Chem, 2023).

Active and inactive are the calls of the source. The rule behind the calls is not given here. Some results are limits rather than exact numbers.

Data set [1] relates to Zika virus. The data set is described as follows: Antiviral activity against Zika virus infected in golden hamster BHK cells assessed as inhibition of virus induced cytopathic effect incubated for 6 to 8 days by CellTiter-Glo luminescent cell viability assay. Type of data set: functional, organism-based.
Data set [2] relates to Zika virus. The data set is described as follows: Inhibition of Zika virus NS5 MTase activity at 50 uM by chemiluminescence-based enzymatic assay system relative to control.
Data set [3] in a line: Half-life in ICR mouse at 25 mg/kg, po administered as single dose and measured upto 24 hrs by LC-MS/MS analysis. Type of data set: ADME, organism-based. The following applies: in vivo.
Data set [4] in a line: Tmax in ICR mouse at 25 mg/kg, po administered as single dose and measured upto 24 hrs by LC-MS/MS analysis. Type of data set: ADME, organism-based. The following applies: in vivo.
A short description of data set [5]: Cmax in ICR mouse at 25 mg/kg, po administered as single dose and measured upto 24 hrs by LC-MS/MS analysis. The following applies: in vivo. The class given is ADME, organism-based.
Data set [6] is described as follows: AUC (0 to t) in ICR mouse at 25 mg/kg, po administered as single dose and measured upto 24 hrs by LC-MS/MS analysis. Type of data set: ADME, organism-based. The following applies: in vivo.
The nature of data set [7]: MRT in ICR mouse at 25 mg/kg, po administered as single dose and measured upto 24 hrs by LC-MS/MS analysis. The following applies: in vivo. Type of data set: ADME, organism-based.
A short description of data set [8]: Acute toxicity in A129 mouse assessed as animal death at 50 mg/kg, po measured after 2 weeks. Type of data set: organism-based. The following applies: in vivo, 336 h.
The nature of data set [9]: Acute toxicity in A129 mouse assessed as animal death at 100 mg/kg, po measured after 2 weeks. Type of data set: organism-based. The following applies: in vivo, 336 h.
The nature of data set [10]: Acute toxicity in po dosed ICR mouse assessed as lethal dose measured after 2 weeks. Type of data set: organism-based. The following applies: in vivo.
For data set [11], the system named is Zika virus. The data set can be described thus: Antiviral activity against Zika virus infected in golden hamster BHK-21 cells assessed as inhibition of viral replication incubated for 72 hrs by Dual-luciferase reporter assay system. The class given is functional, organism-based. The following applies: BHK-21, 72 h. A general note: In a reporter assay the amount or activity of a reporter protein is the signal.

In data set [12] the test system is Zika virus. The data set can be described thus: Antiviral activity against Zika virus infected in infected in golden hamster BHK cells assessed as inhibition of viral RNA production at stage III incubated for 24 hrs by qRT-PCR analysis. The class given is functional, organism-based.
Data set [13] relates to Zika virus. The data set is described as follows: Antiviral activity against Zika virus infected in golden hamster BHK cells assessed as inhibition of viral RNA production at stage IV pre-infected with virus for 2 hrs followed by compound addition and measured 24 hrs post infection by qRT-PCR analysis. The class given is functional, organism-based. The following applies: time 22.0 hrs. On the technique in general: Quantitative PCR measures a nucleic acid by following its amplification.

On to `COc1cccc(CNc2ncnc3c2ncn3[C@@H]2O[C@H](CNCc3ccc(C(F)(F)F)cc3)[C@@H](O)[C@H]2O)c1`, for which the IC50 in data set [1] was found to be 7.5 µM.
On the same count and under the same terms, the same measure for `O[C@@H]1[C@H](O)[C@@H](CN2CCC3(CCNCC3)CC2)O[C@H]1n1cnc2c(NCc3cccc(Cl)c3)ncnc21`: more than 50 µM.
Take `O[C@@H]1[C@H](O)[C@@H](CNCc2ccc(C(F)(F)F)cc2)O[C@H]1n1cnc2c(NCc3cccs3)ncnc21`: in data set [1], the half-inhibitory concentration (IC50) is more than 50 µM.
The same measure, in the same setting: to `O[C@@H]1[C@H](O)[C@@H](CNC2CCCCC2)O[C@H]1n1cnc2c(NCc3cccc(Cl)c3)ncnc21` belongs 5.28 µM; to `O[C@@H]1[C@H](O)[C@@H](CNCc2cccs2)O[C@H]1n1cnc2c(NCc3cccc(Cl)c3)ncnc21`, 6.06 µM; to `O[C@@H]1[C@H](O)[C@@H](CNCc2ccc(C(F)(F)F)cc2)O[C@H]1n1cnc2c(NCc3ccco3)ncnc21`, 13.2 µM.
Take `COc1ccc(CNC[C@H]2O[C@@H](n3cnc4c(NCc5cccc(Cl)c5)ncnc43)[C@H](O)[C@@H]2O)cc1`: the IC50 in data set [1] was 5.01 µM.
For `CCOC(=O)C1CCN(C[C@H]2O[C@@H](n3cnc4c(NCc5cccc(Cl)c5)ncnc43)[C@H](O)[C@@H]2O)CC1`, the IC50 in data set [1] came to 26.8 µM.
Same read-out and setting: to `O[C@@H]1[C@H](O)[C@@H](CNCc2ccncc2)O[C@H]1n1cnc2c(NCc3cccc(Cl)c3)ncnc21` belongs more than 50 µM; to `CNc1ncnc2c1ncn2[C@@H]1O[C@H](CNCc2ccc(C(F)(F)F)cc2)[C@@H](O)[C@H]1O`, more than 50 µM; to `O[C@@H]1[C@H](O)[C@@H](CNCc2cccc3ccccc23)O[C@H]1n1cnc2c(NCc3cccc(Cl)c3)ncnc21`, 3.58 µM.
Still for that read-out and setting: the same measure for `O[C@@H]1[C@H](O)[C@@H](CNC2CCC2)O[C@H]1n1cnc2c(NCc3cccc(Cl)c3)ncnc21`: 7.28 µM; for `Nc1ncnc2c1ncn2[C@@H]1O[C@H](CNCc2ccc(C(F)(F)F)cc2)[C@@H](O)[C@H]1O`: more than 50 µM; for `N#Cc1cccc(CNc2ncnc3c2ncn3[C@@H]2O[C@H](CNCc3ccc(C(F)(F)F)cc3)[C@@H](O)[C@H]2O)c1`: more than 50 µM.
`O[C@@H]1[C@H](O)[C@@H](CN2CCCCC2)O[C@H]1n1cnc2c(NCc3cccc(Cl)c3)ncnc21`: in [1], the concentration for half-maximal inhibition (IC50) is more than 50 µM.
As for `O=C(NC[C@H]1O[C@@H](n2cnc3c(NCc4cccc(Cl)c4)ncnc32)[C@H](O)[C@@H]1O)c1ccc(F)cc1`, the IC50 in [1] is more than 50 µM.
Still for that read-out and setting: the same measure for `O[C@@H]1[C@H](O)[C@@H](CNCc2ccccc2)O[C@H]1n1cnc2c(NCc3cccc(Cl)c3)ncnc21`: 4.57 µM.
Take `O[C@@H]1[C@H](O)[C@@H](CNCc2ccc(F)cc2)O[C@H]1n1cnc2c(NCc3cccc(Cl)c3)ncnc21`: the half-inhibitory concentration (IC50) in [1] was determined as 3.35 µM.
With `CC1CCN(C[C@H]2O[C@@H](n3cnc4c(NCc5cccc(Cl)c5)ncnc43)[C@H](O)[C@@H]2O)CC1`, the IC50 in data set [1] was determined as 6.58 µM.
On to `Cc1cccc(CNc2ncnc3c2ncn3[C@@H]2O[C@H](CNCc3ccc(C(F)(F)F)cc3)[C@@H](O)[C@H]2O)c1`, for which the IC50 in data set [1] was determined as 5.55 µM.
On to `Nc1ncnc2c1ncn2[C@@H]1O[C@H](C[C@@H](N)CC[C@H](N)C(=O)O)[C@@H](O)[C@H]1O`, for which, in data set [2], the inhibition was determined as 67.5%.
As to `O[C@@H]1[C@H](O)[C@@H](CNCc2ccc3ccccc3c2)O[C@H]1n1cnc2c(NCc3cccc(Cl)c3)ncnc21`, in [1], the IC50 stood at 1.45 µM.
In the case of `O[C@@H]1[C@H](O)[C@@H](CNCc2cccc(F)c2)O[C@H]1n1cnc2c(NCc3cccc(Cl)c3)ncnc21`, the IC50 in data set [1] is 5.76 µM.
On the same count and under the same terms, to `O[C@@H]1[C@H](O)[C@@H](CNCc2ccc(C(F)(F)F)cc2)O[C@H]1n1cnc2c(NCc3cccc(F)c3)ncnc21` belongs 4.18 µM.
In the case of `OC1CCN(C[C@H]2O[C@@H](n3cnc4c(NCc5cccc(Cl)c5)ncnc43)[C@H](O)[C@@H]2O)CC1`, the IC50 in data set [1] is more than 50 µM.
Take `CC1CCCN(C[C@H]2O[C@@H](n3cnc4c(NCc5cccc(Cl)c5)ncnc43)[C@H](O)[C@@H]2O)C1` (some centres undefined): the half-life in data set [3] was 214 min. For the same compound, in [1], the half-maximal inhibitory concentration (IC50) turned out to be 1.4 µM. Also, the time to peak (Tmax) in data set [4] was determined as 30 min. The same compound gave a maximum concentration (Cmax) in data set [5] of 837 ng/mL. The compound further yielded an area under the curve AUC(0-t) at 24 h in data set [6] of 2910 ng·h/mL. The compound also had an MRT in [7] of 3.95 h. Also, the Activity result in [8] and in data set [9] was “Non-Toxic” in each case. In addition, the median lethal dose (LD50) at 336 h in [10] is more than 200 mg/kg.
Regarding `CN(Cc1ccc(F)cc1)C[C@H]1O[C@@H](n2cnc3c(NCc4cccc(Cl)c4)ncnc32)[C@H](O)[C@@H]1O`, in data set [1], the IC50 worked out at 5.76 µM.
For the compound `CC1CCCCN1C[C@H]1O[C@@H](n2cnc3c(NCc4cccc(Cl)c4)ncnc32)[C@H](O)[C@@H]1O` (some centres undefined), the IC50 in [1] is 5.67 µM.
Turning to `CCNC[C@H]1O[C@@H](n2cnc3c(NCc4cccc(Cl)c4)ncnc32)[C@H](O)[C@@H]1O`, the concentration for half-maximal inhibition (IC50) in [1] came to 14.7 µM.
For `O[C@@H]1[C@H](O)[C@@H](CNCc2ccc(Cl)cc2)O[C@H]1n1cnc2c(NCc3cccc(Cl)c3)ncnc21`, the IC50 in data set [1] worked out at 2.7 µM.
As for `O[C@@H]1[C@H](O)[C@@H](CN2CCOCC2)O[C@H]1n1cnc2c(NCc3cccc(Cl)c3)ncnc21`, in data set [1], the IC50 was more than 50 µM.
On the same count and under the same terms, the same measure for `O[C@@H]1[C@H](O)[C@@H](CNCc2ccc(C(F)(F)F)cc2)O[C@H]1n1cnc2c(NCc3cccc(C(F)(F)F)c3)ncnc21`: more than 50 µM; for `O[C@@H]1[C@H](O)[C@@H](CNC2CCCC2)O[C@H]1n1cnc2c(NCc3cccc(Cl)c3)ncnc21`: 8.49 µM.
Still for that read-out and setting: to `CCN1CCN(C[C@H]2O[C@@H](n3cnc4c(NCc5cccc(Cl)c5)ncnc43)[C@H](O)[C@@H]2O)CC1` belongs more than 50 µM; to `O[C@@H]1[C@H](O)[C@@H](CNCc2ccc(C(F)(F)F)cc2)O[C@H]1n1cnc2c(NCC3CCC3)ncnc21`, more than 50 µM.
`C[C@@]1(O)[C@H](O)[C@@H](CO)O[C@H]1n1cnc2c(N)ncnc21`: the IC50 in data set [11] turned out to be 1760 nM.
On to `CCN(CC)C[C@H]1O[C@@H](n2cnc3c(NCc4cccc(Cl)c4)ncnc32)[C@H](O)[C@@H]1O`, for which, in data set [1], the IC50 came to 8.43 µM.
On to `CC(C)NC[C@H]1O[C@@H](n2cnc3c(NCc4cccc(Cl)c4)ncnc32)[C@H](O)[C@@H]1O`, for which the IC50 in [1] was determined as 6.36 µM.
Still for that read-out and setting: to `CCN(C)c1ncnc2c1ncn2[C@@H]1O[C@H](CNCc2ccc(C(F)(F)F)cc2)[C@@H](O)[C@H]1O` belongs 24.9 µM; to `O=[N+]([O-])c1ccc(CNC[C@H]2O[C@@H](n3cnc4c(NCc5cccc(Cl)c5)ncnc43)[C@H](O)[C@@H]2O)cc1`, 7.52 µM.
Still for that read-out and setting: the same measure for `O[C@@H]1[C@H](O)[C@@H](CNCc2ccc(C(F)(F)F)cc2)O[C@H]1n1cnc2c(NCC3CCCCC3)ncnc21`: more than 50 µM.
In the case of `C#C[C@@]1(O)[C@H](O)[C@@H](CO)O[C@H]1n1ccc2c(N)ncnc21`, the IC50 in data set [1] worked out at 0.85 µM. In addition, the result in [12] and in data set [13] was Active.
As for `O[C@@H]1[C@H](O)[C@@H](CNCc2ccc(C(F)(F)F)cc2)O[C@H]1n1cnc2c(NCc3ccc(Cl)cc3)ncnc21`, the IC50 in [1] was more than 50 µM.
The same measure, in the same setting: to `O[C@@H]1[C@H](O)[C@@H](CNCc2ccc(OC(F)(F)F)cc2)O[C@H]1n1cnc2c(NCc3cccc(Cl)c3)ncnc21` belongs 2.04 µM.
Take `O[C@@H]1[C@H](O)[C@@H](CN2CCCC2)O[C@H]1n1cnc2c(NCc3cccc(Cl)c3)ncnc21`: in data set [1], the 50% inhibitory concentration (IC50) turned out to be 17.5 µM.
The same measure, in the same setting: to `Oc1ccc(CNC[C@H]2O[C@@H](n3cnc4c(NCc5cccc(Cl)c5)ncnc43)[C@H](O)[C@@H]2O)cc1` belongs 25.8 µM; to `CC(C)N1CCN(C[C@H]2O[C@@H](n3cnc4c(NCc5cccc(Cl)c5)ncnc43)[C@H](O)[C@@H]2O)CC1`, more than 50 µM; to `O[C@@H]1[C@H](O)[C@@H](CNCc2ccc(C(F)(F)F)cc2)O[C@H]1n1cnc2c(NCc3ccccc3Cl)ncnc21`, more than 50 µM.
On the same count and under the same terms, the same measure for `O[C@@H]1[C@H](O)[C@@H](CNCc2ccc(Br)cc2)O[C@H]1n1cnc2c(NCc3cccc(Cl)c3)ncnc21`: 2.2 µM.

As a reminder, the IC50 is the concentration that gives 50% inhibition. By inhibition is commonly meant the drop in the measured response relative to a control, in per cent. The half-life is how long it takes for the measured level to halve. Low readings indicate fast loss, high ones slow loss. The term Tmax denotes the time at which the peak concentration occurs. For orientation: Cmax means the highest concentration seen after dosing. One may read the AUC(0-t) as exposure summed from dosing to a finite time, without extrapolation to infinity. Read a low AUC(0-t) as less exposure. Broadly, the MRT is the average time that molecules of a dose stay in the body. One may read the LD50 as the dose at which mortality reaches 50%.
